Test results published in article PMC10474815 (Science (New York, N.Y.), 2023).

Key:
[1] = target: KRAS^G12C (Homo sapiens, UniProt P01116+P62937, G12C); assay: Kinetic target engagement assay; assay type: biochemical; conditions: active KRAS G12C in the presence of CYPA
[2] = target: CYPA (Homo sapiens, UniProt P62937); assay: Reversible binary complex formation with CYPA; assay type: binding
[3] = target: T1, CYPA:RMC-4998:KRAS^G12C tri-complex (Homo sapiens, UniProt P01116+P62937, G12C); assay: Tri-complex stability after compound washout, biophysical assays; assay type: binding
[4] = target: T1, CYPA:RMC-4998:KRAS^G12C tri-complex; assay: Tri-complex stability after compound washout, cellular experiments; assay type: cell-based
[5] = target: GDP-loaded KRAS^G12C (Homo sapiens, UniProt P01116+P62937, G12C); assay: Native PAGE tri-complex formation with GDP-loaded KRAS G12C; assay type: binding; conditions: KRAS G12C 2 μM, compound 10 μM, CYPA 2 μM
[6] = target: KRAS^G13C (Homo sapiens, UniProt P01116, G13C); assay: Activity on RAS variants
[7] = target: KRAS^G12C in MIA PaCa-2 cells (Homo sapiens, UniProt P01116+P62937, G12C); assay: Covalent modification of KRAS G12C in cells; assay type: cell-based
[8] = tested on: KRAS^G12C mutant cells; assay: Cancer cell line panel viability, 3D CellTiter-Glo; assay type: cell-based; conditions: n = 17 G12C, n = 11 non-G12C cell lines
[9] = tested on: CYPA-null H358 cells
[10] = tested on: KRAS^G12C mutant NSCLC PDX models; assay: Patient-derived xenograft panel, NSCLC; assay type: in vivo; conditions: 200 mg/kg orally once daily, 28-day treatment; 19/25 models
[11] = tested on: KRAS^G12C mutant CRC PDX models; assay: Patient-derived xenograft panel, CRC; assay type: in vivo; conditions: 200 mg/kg orally once daily, 28-day treatment; 6/15 models
[12] = tested on: NCI-H358 xenografts

Row | Covalent engagement efficiency kinact/KI [1] | koff of binary complex with CYPA [2] | Kd ([2]; read-out: Kd of binary complex with CYPA) | Tri-complex half-life after compound washout [3] | Tri-complex half-life after compound washout [4] | Complex formation with GDP-loaded KRAS G12C [5] | Activity on KRAS G13C [6] | Time to complete covalent modification of KRAS G12C [7] | SMILES | Selectivity index (G12C versus non-G12C mutant models) [8] | Effect of CYPA loss on cellular activity [9] | Models with mean tumor regression [10] | Models with mean tumor regression [11] | Tolerability ([12]; mouse, in vivo, po) | Tumor response ([12]; oral once daily, 28 days) | Duration of KRAS G12C engagement and inhibition of ERK phosphorylation in tumors ([12]; single dose)
1 | 272,000 M^−1s^−1 | 1.0 s⁻¹ | 1.09 µM | greater than 8 hours | greater than 8 hours | No complex was detected | little, if any, activity | ≤ 5 min | CCn1c(-c2cccnc2[C@H](C)OC)c2c3cc(ccc31)-c1cccc(c1)C[C@H](NC(=O)[C@H](C(C)C)N1CC[C@]3(CCN(C(=O)C#CC(C)(C)N(C)C)C3)C1=O)C(=O)N1CCC[C@H](N1)C(=O)OCC(C)(C)C2 [RMC-4998] | 1450 times | – | – | – | – | – | –
2 | – | – | – | – | – | – | – | – | C=C(F)C(=O)N1CCN(c2nc(OC[C@@H]3CCCN3C)nc3c2CCN(c2cccc4cccc(Cl)c24)C3)C[C@@H]1CC#N [adagrasib] | – | no effect | – | – | – | – | –
3 | – | – | – | – | – | – | – | – | CCn1c(-c2cccnc2[C@H](C)OC)c2c3cc(ccc31)N1CCO[C@@H](C[C@H](NC(=O)[C@H](C(C)C)N(C)C(=O)C3(F)CCN(C(=O)C#CC(C)(C)N(C)C)CC3)C(=O)N3CCC[C@H](N3)C(=O)OCC(C)(C)C2)C1 [RMC-6291] | 13,500 times | – | 76% | 40% | well tolerated | near complete tumor regression | ~ 24 hours
